Experimental findings from US12576099B2, “Ribose-modified cap analog and use thereof” (Beijing Youcare Kechuang Pharmaceutical Technology Co., Ltd., priority 2024, dated 2026) are described below.

A short description of data set [1]: Characterization of lipid nanoparticles encapsulating Fluc-mRNA prepared from different cap structures. The settings on record: for Particle size: LNP (YK-009/DSPC/cholesterol/DMG-PEG2000) with Fluc-mRNA transcribed using the named cap analog; for PDI: LNP with Fluc-mRNA transcribed using the named cap analog; for EE: encapsulation efficiency of LNP with Fluc-mRNA transcribed using the named cap analog. In kind it is physicochemical. How it is done: Cationic lipid YK-009 (Beijing Youcare Kechuang Pharmaceutical Technology Co., Ltd.), DSPC (AVT (Shanghai) Pharmaceutical Technology Co., Ltd.), cholesterol (AVT (Shanghai) Pharmaceutical Technology Co., Ltd.), and DMG-PEG2000 were dissolved in ethanol at a molar ratio of 49:10:39.5:1.5, and the mRNA was diluted in 50 mM citrate buffer (pH=4). The ethanol lipid solution was mixed with the Fluc-mRNA aqueous solution prepared from different cap structures at a volume ratio of 1:3 using a microfluidic device at a flow rate of 10 mL/min to prepare LNPs at a weight ratio of total lipid to mRNA of approximately 15:1.
The resulting liposomes were diluted to 10-fold volume with PBS, and then ultrafiltered with a 300 KDa ultrafiltration tube to remove ethanol. The volume was then fixed to a certain volume with PBS. Finally, the LNPs were filtered through a 0.2 μm sterile filter to obtain an LNP preparation encapsulating Fluc-mRNA using YK-009/DSPC/cholesterol/DMG-PEG2000 (at a molar ratio of 49:10:39.5:1.5).
The particle size and polydispersity index (PDI) were determined by dynamic light scattering using a Malvern laser particle size analyzer. 10 μL of the liposome solution was taken, diluted to 1 mL with RNase-free deionized water, and added to a sample pool. Each sample was measured in triplicate. The measurement conditions were: a scattering angle of 90° and a temperature of 25° C. The encapsulation efficiency of LNPs was determined using the Quant-iT RiboGreen RNA Quantification Kit (Thermo Fisher Scientific, UK) according to the manufacturer's instructions.

For another data set, the system named is HEK293T cells. Kind of data set: Translation efficiency of different capped luciferase mRNAs. The class given is cell-based. Particulars: for Relative fluorescence intensity: HEK293T, 0.5 μg mRNA per well, 24 hours, proportional to translation efficiency; for Multiple of m6A (relative fluorescence intensity): relative to m6A. How it is done: • (1) HEK293T cells were cultured in DMEM medium containing 10% FBS and penicillin/streptomycin at 37° C. with 5% CO2. • (2)Cells in the culture dish were digested and counted, then spread in a 96-well plate at 10,000 cells per well, and cultured overnight until the cells adhered to the wall. • (3) When the cell density reached approximately 80%, transfection was performed by adding 0.5 μg of mRNA sample and Lipofectamine MessengerMAX Transfection Reagent (Invitrogen) per well according to the manufacturer's instructions. • (4) After the transfected cells were cultured at 37° C. with 5% CO2 for 24 hours, the growth medium was removed from the cells to be tested, and the cells were rinsed with PBS. After centrifugation to remove PBS, 50 μL of 1× lysis buffer was added. The cells and all liquid were transferred to a microcentrifuge tube and centrifuged. • (5) 20 μL of sample was taken and added to 100 μL of Dual-Lumi™ II Luciferase Assay Reagent pre-equilibrated to room temperature, and mixed appropriately. • (6) The mixture was incubated at room temperature (approximately 25° C.) for 5 minutes to stabilize the luminescence signal. Chemiluminescence was detected using a multifunctional microplate reader with a function for detecting chemiluminescence, and the data were recorded.
The relative fluorescence intensity is proportional to the translation efficiency of mRNA.

The target in the next data set is T1, DCP2 enzyme (Schizosaccharomyces pombe, UniProt O13828).
T1 construct: purchased New England Biolabs
T1 sequence (O13828 1-243 limits assumed): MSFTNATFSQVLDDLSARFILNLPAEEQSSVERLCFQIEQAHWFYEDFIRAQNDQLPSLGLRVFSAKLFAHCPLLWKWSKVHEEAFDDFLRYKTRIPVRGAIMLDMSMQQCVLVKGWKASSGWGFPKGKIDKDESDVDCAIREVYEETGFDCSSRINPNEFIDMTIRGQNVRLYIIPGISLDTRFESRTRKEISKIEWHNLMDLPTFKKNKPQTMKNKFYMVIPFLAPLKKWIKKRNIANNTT
T1 sequence (Q9P805 1-127 partner): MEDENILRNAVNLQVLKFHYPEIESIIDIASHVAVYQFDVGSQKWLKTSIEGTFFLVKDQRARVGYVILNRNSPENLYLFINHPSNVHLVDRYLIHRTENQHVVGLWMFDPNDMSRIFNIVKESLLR
T1 sequence (Q10108 155-180 partner limits assumed): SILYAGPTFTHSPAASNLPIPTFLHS
Kind of data set: Decapping enzyme stability test. In kind it is biochemical. The settings on record: for Decapping rate (%) of DCP2 enzyme: 50 U mRNA decapping enzyme, 37° C., 45 minutes. How it is done: […] of RNA purified by polyacrylamide gel electrophoresis (PAGE) was subjected to an enzymatic reaction with 50 U of mRNA decapping enzyme (New England Biolabs) and 1×MDE buffer at 37° C. for 45 minutes. The enzymatic reactants were subjected to PAGE and stained with SYBR Green II (Lonza), followed by observation of the post-electrophoresis gel image on a Typhoon FLA 7000 (GE Healthcare) instrument. The electrophoresis band intensity ratio of RNA capping to RNA decapping was counted using ImageQuant (GE Healthcare) software, and the decapping rate of the decapping enzyme was calculated.

For a further data set, the system named is BALB/C mice. Kind of data set: In vivo imaging of Fluc-mRNA LNP expression in mice. As to the method:
The LNP preparation containing 5 μg of cap analog-transcribed Fluc-mRNA was intramuscularly injected into female BALB/C mice aged 4 to 6 weeks and weighing 17 to 19 g. At specific time points after administration (6 hours, 12 hours, 24 hours, 48 hours, 96 hours, and 168 hours), the mice were intraperitoneally injected with fluorescence imaging substrate. The mice were then allowed to move freely for 5 minutes, followed by detection of the total radiation intensity of the protein expressed by LNP-carrying mRNA in the mice using an IVIS Spectrum small-animal in vivo imaging system (corresponding to the amount of protein expression).
In the in vivo imaging experiments in mice, the multiple of the total radiation intensity for each group of mice relative to the m6A group is shown in Table 8 (where the total radiation intensity is represented as the given value×10^8 p/s).

Where [2] appears, read: 6 h, 5 μg Fluc-mRNA LNP intramuscular, mice.
Where [3] appears, read: 12 h, 5 μg Fluc-mRNA LNP intramuscular, mice.
Setting [4] is: 24 h, 5 μg Fluc-mRNA LNP intramuscular, mice.
Where [5] appears, read: 48 h, 5 μg Fluc-mRNA LNP intramuscular, mice.
[6] abbreviates: 96 h, 5 μg Fluc-mRNA LNP intramuscular, mice.
[7] abbreviates: 168 h, 5 μg Fluc-mRNA LNP intramuscular, mice.

In data set [1], `CCO[C@@H]1[C@H](OP(=O)(O)OC[C@H]2O[C@@H](n3cnc4c(=O)[nH]c(N)nc43)[C@H](O)[C@@H]2O)[C@@H](COP(=O)(O)OP(=O)(O)OP(=O)(O)OC[C@H]2O[C@@H]([n+]3cn(C)c4c(=O)[nH]c(N)nc43)[C@H](O)[C@@H]2O)O[C@H]1n1cnc2c(N)ncnc21` [CAP-2′O-ethyl, reference compound] returned a Particle size of 81.34 nm. The same compound returned a PDI in data set [1] of 0.035. The EE in data set [1] is 96.3%. Moreover, in the data set with HEK293T cells, the Relative fluorescence intensity came out at 1.13. The “Multiple of m6A (relative fluorescence intensity)” value in the data set on HEK293T cells stood at 3.0. Besides, the “Decapping rate (%) of DCP2 enzyme” value at DCP2 enzyme is on record as 28.3%. Moreover, the “Decrease relative to N-7113 (decapping rate)” value on DCP2 enzyme was found to be 15.5%. Besides, the “Multiple of total radiation intensity relative to m6A” value with BALB/C mice (6 h) was 2.3; with BALB/C mice (12 h), 2.3; in the data set with BALB/C mice (24 h), 2.6; in the data set on BALB/C mice (48 h), 1.1; in the data set with BALB/C mice (96 h), 2.4. Also, the Total radiation intensity is given as 5.41 ×108 p/s in the data set with BALB/C mice (setting [2]); 4.80 ×108 p/s in the data set with BALB/C mice (setting [3]); 1.73 ×108 p/s in the data set with BALB/C mice (setting [4]); 0.57 ×108 p/s in the data set on BALB/C mice (setting [5]); 0.09 ×108 p/s with BALB/C mice (setting [6]); 0.02 ×108 p/s in the data set with BALB/C mice (setting [7]).
`CO[C@@H]1[C@H](OP(=O)(O)OC[C@H]2O[C@@H](n3cnc4c(=O)[nH]c(N)nc43)[C@H](O)[C@@H]2O)[C@@H](COP(=O)(O)OP(=O)(O)OP(=O)(O)OC[C@H]2O[C@@H]([n+]3cn(C)c4c(=O)[nH]c(N)nc43)[C@H](O)[C@@H]2O)O[C@H]1n1cnc2c(N)ncnc21` [N-7113, reference compound] showed a Particle size in data set [1] of 87.45 nm. Also, the PDI in data set [1] was determined as 0.078. In data set [1], this compound showed an EE of 96.1%. Besides, in the data set on HEK293T cells, the Relative fluorescence intensity amounted to 1.00. The “Multiple of m6A (relative fluorescence intensity)” value in the data set on HEK293T cells stood at 2.6. At DCP2 enzyme, the “Decapping rate (%) of DCP2 enzyme” value is on record as 43.8%. At DCP2 enzyme, the “Decrease relative to N-7113 (decapping rate)” value is listed as 0.0%. Besides, the “Multiple of total radiation intensity relative to m6A” value in the data set with BALB/C mice (6 h) is recorded as 2.2; in the data set with BALB/C mice (12 h) it was 2.0; in the data set on BALB/C mice (24 h), 2.3; with BALB/C mice (48 h), 0.9; in the data set on BALB/C mice (96 h) it was 2.4. In addition, the Total radiation intensity in the data set with BALB/C mice (setting [2]) is 5.10 ×108 p/s; in the data set on BALB/C mice (setting [3]), 4.33 ×108 p/s; in the data set on BALB/C mice (setting [4]) it was 1.49 ×108 p/s; with BALB/C mice (setting [5]), 0.49 ×108 p/s; with BALB/C mice (setting [6]) it was 0.05 ×108 p/s; with BALB/C mice (setting [7]), 0.02 ×108 p/s. The values for the Total radiation intensity in the data set with BALB/C mice (at 12 hours) and in the data set with BALB/C mice (at 48 hours) were 4.33 ×10^8 p/s and 0.49 ×10^8 p/s, respectively.
The compound `CNc1ncnc2c1ncn2[C@@H]1O[C@H](COP(=O)(O)OP(=O)(O)OP(=O)(O)OC[C@H]2O[C@@H]([n+]3cn(C)c4c(=O)[nH]c(N)nc43)[C@H](O)[C@@H]2O)[C@@H](OP(=O)(O)OC[C@H]2O[C@@H](n3cnc4c(=O)[nH]c(N)nc43)[C@H](O)[C@@H]2O)[C@H]1OC` [m6A, reference compound] came in with a Particle size in data set [1] of 75.76 nm. The PDI in data set [1] turned out to be 0.047. Besides, the EE in data set [1] turned out to be 93.8%. The Relative fluorescence intensity with HEK293T cells was found to be 0.38. In addition, the “Multiple of m6A (relative fluorescence intensity)” value in the data set with HEK293T cells was found to be 1.0. For the same compound, on DCP2 enzyme, the “Decapping rate (%) of DCP2 enzyme” value was 33.8%. In addition, on DCP2 enzyme, the “Decrease relative to N-7113 (decapping rate)” value is 10.0%. Also, the “Multiple of total radiation intensity relative to m6A” value with BALB/C mice (6 h), in the data set on BALB/C mice (12 h), in the data set with BALB/C mice (24 h), in the data set with BALB/C mice (48 h) and in the data set on BALB/C mice (96 h) was 1.0 each time. Besides, the Total radiation intensity in the data set on BALB/C mice (setting [2]) is 2.35 ×108 p/s; in the data set on BALB/C mice (setting [3]), 2.12 ×108 p/s; with BALB/C mice (setting [4]) it was 0.66 ×108 p/s; in the data set on BALB/C mice (setting [5]), 0.52 ×108 p/s; in the data set on BALB/C mice (setting [6]) it was 0.08 ×108 p/s; in the data set on BALB/C mice (setting [7]) it was 0.02 ×108 p/s. Also, the figures for the Total radiation intensity with BALB/C mice (at 12 hours) and with BALB/C mice (at 48 hours) were 2.12 ×10^8 p/s and 0.52 ×10^8 p/s, respectively.
`COC[C@H]1[C@@H](O)[C@H]([n+]2cn(C)c3c(=O)[nH]c(N)nc32)O[C@@H]1COP(=O)(O)OP(=O)(O)OP(=O)(O)OC[C@H]1O[C@@H](n2cnc3c(N)ncnc32)[C@H](OC)[C@@H]1OP(=O)(O)OC[C@H]1O[C@@H](n2cnc3c(=O)[nH]c(N)nc32)[C@H](O)[C@@H]1O` [HN3002, reference compound]: in data set [1], the Particle size is on record as 75.35 nm, the PDI was found to be 0.058 and the EE was determined as 95.1%. Besides, the “Multiple of m6A (relative fluorescence intensity)” value in the data set on HEK293T cells amounted to 3.0. Also, on DCP2 enzyme, the “Decapping rate (%) of DCP2 enzyme” value is given as 23.3% and the “Decrease relative to N-7113 (decapping rate)” value was 20.5%.
